Legend:
Test in all cases: relative viability (nuclei count vs DMSO), 5 days (fraction); higher = more cells survive
Tanzisertib + Pictilisib = compound: O[C@H]1CC[C@H](Nc2ncc3nc(Nc4c(F)cc(F)cc4F)n([C@H]4CCOC4)c3n2)CC1 [Tanzisertib] + CS(=O)(=O)N1CCN(Cc2cc3nc(-c4cccc5[nH]ncc45)nc(N4CCOCC4)c3s2)CC1 [Pictilisib] (partner 1 µM)
Method in brief: (§1)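 Relative viability divides the nuclei count in treated wells by that in vehicle wells. Lung cancer cell lines were seeded in 1536-well plates, dosed by pin tool the next day, and fixed and stained after 5 days in one step with final 0.05% Triton X-100, 1% formaldehyde and 1 ug/ml Hoechst. Dosing was a single drug or a fixed anchor-drug dose plus five library-drug doses (not always all listed) in √10 steps, and values are medians of duplicate plates imaged at 4×.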

[1] = compound: C[C@@H](N)c1ccc(C(=O)Nc2ccnc3[nH]ccc23)cc1 + O=C(CCCCCCC(=O)Nc1ccccc1)NO [Vorinostat] (partner 1 µM)
Method in brief: as §1

[2] = compound: C1CNCCC1C2=CC(=NN2)C3=CC=NC=C3 + CCNC(=O)c1noc(-c2cc(C(C)C)c(O)cc2O)c1-c1ccc(CN2CCOCC2)cc1 [Luminespib] (partner 0.01 µM)
Method in brief: as §1

Tanzisertib + Vorinostat = compound: O[C@H]1CC[C@H](Nc2ncc3nc(Nc4c(F)cc(F)cc4F)n([C@H]4CCOC4)c3n2)CC1 [Tanzisertib] + O=C(CCCCCCC(=O)Nc1ccccc1)NO [Vorinostat] (partner 1 µM)
Method in brief: as §1

Cell Line | relative viability (Tanzisertib + Pictilisib; first compound 0.08 µM) | relative viability (Tanzisertib + Pictilisib; first compound 0.253 µM) | relative viability (Tanzisertib + Pictilisib; first compound 0.8 µM) | relative viability (Tanzisertib + Pictilisib; first compound 2.53 µM) | relative viability (Tanzisertib + Pictilisib; first compound 8 µM) | relative viability ([1]; first compound 0.04 µM) | relative viability ([1]; first compound 0.1265 µM) | relative viability ([1]; first compound 0.4 µM) | relative viability ([1]; first compound 1.265 µM) | relative viability ([1]; first compound 4 µM) | relative viability ([2]; first compound 0.08 µM) | relative viability ([2]; first compound 0.8 µM) | relative viability ([2]; first compound 2.53 µM) | relative viability ([2]; first compound 8 µM) | relative viability (Tanzisertib + Vorinostat; first compound 0.08 µM) | relative viability (Tanzisertib + Vorinostat; first compound 0.253 µM) | relative viability (Tanzisertib + Vorinostat; first compound 0.8 µM) | relative viability (Tanzisertib + Vorinostat; first compound 2.53 µM) | relative viability (Tanzisertib + Vorinostat; first compound 8 µM)
201T | 0.748 | 0.676 | 0.684 | 0.687 | 0.649 | 0.909 | 0.886 | 0.981 | 0.891 | 1.24 | 1.03 | 1.04 | 1.13 | 1.01 | 1.03 | 1.01 | 0.996 | 0.988 | 0.764
A549 | 0.564 | 0.496 | 0.588 | 0.534 | 0.428 | – | – | – | – | – | – | – | – | – | – | – | – | – | –
A-427 | 0.822 | 0.728 | 0.704 | 0.683 | 0.606 | 0.77 | 0.851 | 0.81 | 0.746 | 0.772 | 0.789 | 1.2 | 0.908 | 0.92 | 0.897 | 0.833 | 0.874 | 0.884 | 0.77
ABC-1 | 0.906 | 0.837 | 0.686 | 0.764 | 0.785 | 1.23 | 1.11 | 1.01 | 0.998 | 0.941 | 0.517 | 0.69 | 1.02 | 0.663 | 1.22 | 1.58 | 1.15 | 1.1 | 0.786
BEN | 0.577 | 0.555 | 0.612 | 0.561 | 0.48 | 0.592 | 0.573 | 0.589 | 0.585 | 0.587 | 0.215 | 0.282 | 0.341 | 0.344 | 0.593 | 0.583 | 0.613 | 0.588 | 0.611
CAL-12T | 0.416 | 0.468 | 0.438 | 0.485 | 0.353 | 0.863 | 0.771 | 0.914 | 0.876 | 0.897 | 0.606 | 0.734 | 0.457 | 0.819 | 0.896 | 0.663 | 0.909 | 0.893 | 0.755
COR-L23 | 0.922 | 0.736 | 0.781 | 0.97 | 0.869 | 0.51 | 0.486 | 0.479 | 0.417 | 0.212 | 0.481 | 0.838 | 0.64 | 0.671 | 0.438 | 0.504 | 0.479 | 0.494 | 0.537
COR-L 105 | 0.428 | 0.387 | 0.404 | 0.442 | 0.263 | 1.04 | 0.793 | 0.998 | 0.76 | 0.544 | 0.688 | 0.648 | 0.921 | 0.962 | 0.834 | 0.893 | 0.828 | 0.903 | 1
Calu-6 | 0.901 | 1.01 | 0.865 | 1.03 | 0.976 | – | – | – | – | – | – | – | – | – | – | – | – | – | –
ChaGo-K-1 | 0.657 | 0.819 | 0.845 | 0.627 | 0.482 | 0.702 | 0.751 | 0.743 | 0.555 | 0.676 | 0.512 | 0.555 | 0.709 | 0.568 | 0.81 | 0.801 | 0.71 | 0.779 | 0.57
EBC-1 | 0.468 | 0.454 | 0.405 | 0.338 | 0.275 | – | – | – | – | – | – | – | – | – | – | – | – | – | –
EKVX | 0.425 | 0.392 | 0.405 | 0.42 | 0.329 | 0.672 | 0.672 | 0.83 | 0.44 | 0.517 | 0.855 | 0.609 | 0.987 | 0.8 | 0.711 | 0.691 | 0.852 | 0.741 | 0.676
EMC-BAC-2 | 0.606 | 0.534 | 0.57 | 0.528 | 0.419 | 0.314 | 0.526 | 0.427 | 0.341 | 0.395 | 0.882 | 1.16 | 1.28 | 1.14 | 0.46 | 0.849 | 0.464 | 0.5 | 0.217
EPLC-272H | 0.396 | 0.328 | 0.397 | 0.337 | 0.199 | 0.548 | 0.567 | 0.497 | 0.352 | 0.351 | 0.281 | 0.22 | 0.406 | 0.206 | 0.515 | 0.35 | 0.487 | 0.483 | 0.358
H3255 | 0.548 | 0.452 | 0.487 | 0.457 | 0.253 | 0.89 | 0.816 | 0.886 | 0.655 | 0.715 | 0.755 | 0.955 | 1.15 | 1.08 | 0.818 | 0.938 | 0.787 | 0.721 | 0.345
HARA | 0.475 | 0.337 | 0.321 | 0.436 | 0.412 | 0.521 | 0.646 | 0.604 | 0.403 | 0.26 | 0.647 | 0.72 | 0.793 | 0.687 | 0.558 | 0.556 | – | 0.385 | 0.585
HCC-15 | 0.836 | 0.651 | 0.786 | 0.698 | 0.494 | 0.844 | 0.817 | 0.933 | 0.997 | 0.868 | 0.324 | 0.347 | 0.345 | 0.205 | 0.91 | 0.766 | 0.857 | 0.807 | 0.923
HCC-44 | 0.638 | 0.701 | 0.565 | 0.442 | 0.569 | 1.16 | 1.07 | 1.02 | 1.16 | 0.82 | 0.923 | 1.58 | 1.32 | 1.06 | 1.22 | 1.16 | 1.19 | 1.19 | 1.25
HCC-78 | 0.215 | 0.175 | 0.23 | 0.219 | 0.192 | 0.533 | 0.425 | 0.622 | 0.706 | 0.618 | – | – | – | – | 0.505 | 0.455 | 0.461 | 0.403 | 0.447
HCC-366 | 0.138 | 0.15 | 0.134 | 0.128 | 0.114 | 0.385 | 0.306 | 0.486 | 0.181 | 0.398 | – | – | – | – | – | 0.361 | 0.386 | 0.428 | 0.309

From the supplement of paper PMC10307832
